{
  "source": "patent US4172943A",
  "about": "“(8-Substituted-10-hydroxy-5,5-dimethyl-1,2 ,3,4-tetrahydro-5H-(1)benzopyrano(4,3-C)pyridin-2-yl)acetyl ureas and derivatives” (Abbott Laboratories, priority 1978, dated 1979)",
  "key": {"[1]": {"test_system": "response time to radiated heat focused on the tail (rat tail flick)", "test": "Rat Tail Flick Test", "type": "in vivo, male, Sprague-Dawley rats", "settings": "for average response time, 1 Hr. / Activity - Increase in Response Time (2 Hrs.) / average response time, 2 Hrs. / average response time, 3 Hrs.: p.o.", "description": "In this test, groups of 10 male, Sprague-Dawley rats, weighing 142-170 g. were orally (p.o.) gavaged with compound (V) after the average normal response time to radiated heat focused on the tail had been established by two trials. Response times were recorded hourly for 3 hours after the administration of the compound. The activity was determined as the percent increase in response time over the average normal response for the response for the respective group. An ED50 value representing the dose producing a 50% increase in average response time was calculated by a linear regression program."}, "[2]": {"test_system": "acetic acid writhing response", "test": "Mouse (Acetic Acid) Writhing Test", "type": "in vivo, female, ICR mice", "settings": "for Activity % Inhibition / Ave. Number of Writhes (20 min.): p.o., one hour before acetic acid; for Ave. Number of Writhes (20 min.): controls 55.0", "description": "In this test, groups of 5 female, ICR mice (Schmidt) weighing 19-25 g. were orally (p.o.) gavaged with compound (V) one hour prior to the intraperitoneal injection of 0.4 ml. of acetic acid 0.5% (v/v). Five minutes after the acid injection, the number of writhing responses over a 20 minute period were counted. One group received an oral dose of vehicle only to serve as controls. Activity was determined as the percent difference (inhibition) between the average number of writhes for the test groups as compared to the controls. An ED50 value representing the dose producing a 50% inhibition of the writhing response was calculated by a linear regression program."}, "[3]": {"test_system": "methamphetamine-induced hyperactivity in rats", "test": "Rat Desoxyn Antagonism Test", "type": "in vivo", "settings": "methamphetamine 1 mg./kg., i.p.", "description": "In this test, the antagonism or potentiation of methamphetamine-induced hyperactivity in rats was evaluated in motor activity chambers equipped with photocells (Lehigh Valley, Model #1497). Groups of rats were premedicated with Compound (V) and then administered methamphetamine (1 mg./kg., i.p.). One rat was placed in each chamber and three rats were used per test dose. Effect was recorded as percent change in counts from the photocells compared to methamphetamine-treated controls."}},
  "data": [
    {"smiles": "CC(CCCc1ccc(F)cc1)c1cc(O)c2c(c1)OC(C)(C)C1=C2CN(CC(=O)NC(N)=O)CC1", "note": "(centres unmarked) [Compound V, {{8-[5-(4-Fluorophenyl)-2-pentyl]-10-hydroxy-5,5-dimethyl-1,2,3,4-tetrahydro-5H-[1]benzopyrano[4,3-c]pyridin-2-yl}acetyl}urea]", "values": [
      {"measurement": "average response time, 1 Hr.", "setting": "[1]; 1.0 mg./kg., Normal 8.03", "value": 9.03, "unit": "s"},
      {"measurement": "Activity - Increase in Response Time (2 Hrs.)", "setting": "[1]; 1.0 mg./kg., 2 hrs", "value": 30.0, "unit": "%"},
      {"measurement": "average response time, 2 Hrs.", "setting": "[1]; 1.0 mg./kg., 2 hrs, Normal 8.03", "value": 10.44, "unit": "s"},
      {"measurement": "average response time, 3 Hrs.", "setting": "[1]; 1.0 mg./kg., Normal 8.03", "value": 11.22, "unit": "s"},
      {"measurement": "average response time, 1 Hr.", "setting": "[1]; 2.0 mg./kg., Normal 6.80", "value": 8.92, "unit": "s"},
      {"measurement": "Activity - Increase in Response Time (2 Hrs.)", "setting": "[1]; 2.0 mg./kg., 2 hrs", "value": 56.0, "unit": "%"},
      {"measurement": "average response time, 2 Hrs.", "setting": "[1]; 2.0 mg./kg., 2 hrs, Normal 6.80", "value": 10.61, "unit": "s"},
      {"measurement": "average response time, 3 Hrs.", "setting": "[1]; 2.0 mg./kg., Normal 6.80", "value": 10.99, "unit": "s"},
      {"measurement": "average response time, 1 Hr.", "setting": "[1]; 4.0 mg./kg., Normal 8.30", "value": 11.13, "unit": "s"},
      {"measurement": "Activity - Increase in Response Time (2 Hrs.)", "setting": "[1]; 4.0 mg./kg., 2 hrs", "value": 95.2, "unit": "%"},
      {"measurement": "average response time, 2 Hrs.", "setting": "[1]; 4.0 mg./kg., 2 hrs, Normal 8.30", "value": 16.20, "unit": "s"},
      {"measurement": "average response time, 3 Hrs.", "setting": "[1]; 4.0 mg./kg., Normal 8.30, average includes maximum values (30 seconds cut-off time)", "value": 16.98, "unit": "s"},
      {"measurement": "average response time, 1 Hr.", "setting": "[1]; 8.0 mg./kg., Normal 7.97, average includes maximum values (30 seconds cut-off time)", "value": 13.63, "unit": "s"},
      {"measurement": "Activity - Increase in Response Time (2 Hrs.)", "setting": "[1]; 8.0 mg./kg., 2 hrs", "value": 98.6, "unit": "%"},
      {"measurement": "average response time, 2 Hrs.", "setting": "[1]; 8.0 mg./kg., 2 hrs, Normal 7.97, average includes maximum values (30 seconds cut-off time)", "value": 15.83, "unit": "s"},
      {"measurement": "average response time, 3 Hrs.", "setting": "[1]; 8.0 mg./kg., Normal 7.97", "value": 14.32, "unit": "s"},
      {"measurement": "ED50", "setting": "[1]; Rattus norvegicus, po, 2 hrs, dose producing 50% increase in average response time, linear regression, (0.02, 3.19) printed after value", "value": 1.6, "unit": "mg/kg"},
      {"measurement": "Activity % Inhibition", "setting": "[2]; 0.5 mg./kg.", "value": 48.4, "unit": "%"},
      {"measurement": "Ave. Number of Writhes (20 min.)", "setting": "[2]; 0.5 mg./kg.", "value": 28.4},
      {"measurement": "Activity % Inhibition", "setting": "[2]; 1.0 mg./kg.", "value": 50.2, "unit": "%"},
      {"measurement": "Ave. Number of Writhes (20 min.)", "setting": "[2]; 1.0 mg./kg.", "value": 27.4},
      {"measurement": "Activity % Inhibition", "setting": "[2]; 2.0 mg./kg.", "value": 72.4, "unit": "%"},
      {"measurement": "Ave. Number of Writhes (20 min.)", "setting": "[2]; 2.0 mg./kg.", "value": 15.2},
      {"measurement": "Activity % Inhibition", "setting": "[2]; 4.0 mg./kg.", "value": 89.1, "unit": "%"},
      {"measurement": "Ave. Number of Writhes (20 min.)", "setting": "[2]; 4.0 mg./kg.", "value": 6.0},
      {"measurement": "ED50", "setting": "[2]; Mus musculus, po, dose producing 50% inhibition of writhing response, linear regression, (0.4, 1.0) printed after value", "value": 0.7, "unit": "mg/kg"},
      {"measurement": "% Decreased Activity Over Control", "setting": "[3]; oral dose 5 mg./kg.", "value": 75, "unit": "%"},
      {"measurement": "% Decreased Activity Over Control", "setting": "[3]; oral dose 20 mg./kg.", "value": 93, "unit": "%"},
      {"measurement": "% Decreased Activity Over Control", "setting": "[3]; oral dose 80 mg./kg.", "value": 84, "unit": "%"}
    ]}
  ]
}
